In brackets after ≈: the same amount, converted by molar mass.

In assay [1] the test system is extracts of Escherichia coli (E. coli S30). Description: In vitro transcription/translation system with pGL3 luciferase readout. It counts as biochemical. To be noted: 10 μM; FIG. 1. The method, then:
The structure of ovatodiolide is similar to that of the medicines in antibiotics for inhibiting protein generation. In order to understand whether the mechanism of ovatodiolide for inhibiting Helicobacter Pylori is related to protein synthesis, let ovatodiolide and extracts of Escherichia coli (E. coli S30) to take effect for 10 minutes by using in vitro transcription/translation systems. Then, pGL3 luciferase is added for carrying out transcription and translation reaction for 2 hours. Finally, the reacted sample is added with luciferin for it to present color by using Dual-Luciferase Reporter Assay System. Then, microplate luminometer is used to determine the […] in order to find out whether ovatodiolide can inhibit protein synthesis.
Among them, inhibition of 30S subunit using kanamycin and inhibition of […] using erythromycin are used as control groups.

The test system of assay [2] is protein RpsB in 30S ribosomal subunit. Description: Western blot analysis of RpsB content in Helicobacter pylori lysates. It counts as cell-based. The settings on record: H. pylori cultivated with ovatodiolide of different concentrations for 6 hours; FIG. 2. Here is the method: In this embodiment, the process of protein translation has three steps, namely, initiation, elongation and termination of ribosomes. In order to further analyze whether ovatodiolide is effected on ribosomes causing protein synthesis unable to proceed smoothly, western blot analysis is used to determine the content of protein RpsB in 30S ribosomal subunit. Helicobacter pylori is cultivated with ovatodiolide of different concentrations for 6 hours, and extract total cell lysates. Separate total cell lysates by using 10% SDS-PAGE, transfer protein using PVDF membrane, and carry out hybridization with protein using RpsB antibody. Then, detect RpsB antibody using anti-rabbit antibody; finally, a chromogenic reagent is added, and observe results by using the apparatus Azure C400 Biosystems.
FIG. 2 is an expression of 30S ribosomal subunits RpsB analyzed by using western blot analysis. Wherein kanamycin (400 μM) and erythromycin (400 μM) are used as control groups.
(In general: A western blot detects proteins with antibodies after separation by electrophoresis.)

Assay [3] relates to Hp reference strain 26695. Description: Minimum bactericidal concentration, serial dilution and spread plate method. To be noted: cultivated six hours; type strain 26695. It counts as cell-based, Helicobacter pylori. Here is the method:
(§1) Different concentrations of ovatodiolide are prepared by using serial dilution method, and Helicobacter pylori type strain and multidrug-resistant gastric Helicobacter pylori (v633, v1354) separated from laboratory are cultivated for six hours respectively. Then, ovatodiolide is analyzed by using spread plate method to observe the number of colony growth, and analyze the minimum bactericidal concentrations of ovatodiolide for completely killing Helicobacter pylori type strain and multidrug-resistant strains. Based on the results on Table 2, the minimum bactericidal concentration of ovatodiolide for Helicobacter pylori type strain is 200 μM, and the minimum bactericidal concentrations for multidrug-resistant strains v633 and v1354 are 100 μM.

The subject of another assay is Hp v633. The description is as above. The format is cell-based, Helicobacter pylori. The settings on record: cultivated six hours; multidrug-resistant strain v633. Here is the method:
as §1

The subject of the next assay is Hp v1354. Described as above. It counts as cell-based, Helicobacter pylori. The settings on record: cultivated six hours; multidrug-resistant strain v1354. The method, then: as §1
Assay [4] deals with Helicobacter pylori type strain (H. pylori 26695). Description: Minimum bacteriostatic concentration by agar-well diffusion (inhibitory rings). The format is cell-based. The settings on record: for Inhibitory rings: cultivated two days. Here is the method: Different concentrations of ovatodiolide disks are used to cultivate with Helicobacter pylori for two days respectively. Then, the minimum concentrations for inhibiting Helicobacter pylori are determined by using agar-well diffusion. The results are used for analyzing the minimum concentration of ovatodiolide for inhibiting the growth of Helicobacter pylori type strain (H. pylori 26695). […] Based on the experimental results, 10 μM and 20 μM of ovatodiolide have inhibitory rings; the diameters of the inhibitory rings are 10±0.5 mm and 19±0 mm respectively. This proves that the minimum bacteriostatic concentration of ovatodiolide for inhibiting Helicobacter pylori is 10 μM.

As to `C=C1C(=O)O[C@@H]2/C=C(\C)C[C@H]3C=C(CC/C=C(\C)CC[C@@H]12)C(=O)O3` [ovatodiolide], the “inhibition of protein synthesis” value in assay [1] was “more than 50%”. In addition, the “expression of protein RpsB” value in assay [2] was “reduces significantly”. For the same compound, the values for the Minimum bactericidal concentration (in assay [3]; in the assay with Hp v633; in the assay with Hp v1354) were 200 µM (≈ 65.7 µg/mL), 100 µM (≈ 32.8 µg/mL) and 100 µM (≈ 32.8 µg/mL), respectively. The minimum bacteriostatic concentration in assay [4] (agar-well diffusion, H. pylori 26695) stood at 10 µM. In addition, the Inhibitory rings in assay [4] (ovatodiolide 10 μM) is listed as 10±0.5 mm; in assay [4] (ovatodiolide 20 μM) it was 19±0 mm.

For the origin of these results see patent US20190358198A1, “USE OF OVATODIOLIDE FOR PREPARING A COMPOSITION FOR INHIBITING PROTEIN SYNTHESIS OF GASTRIC HELICOBACTER PYPORI” (Syi Biotechnology Co.,Ltd., priority 2018, published 2019).
